What was measured:
Type in all cases: cell-based
[1] = tested on: Chrysosporium keratinophilum; experiment: Agar plate disc-diffusion, antifungal, inhibition zone; conditions: fungal
Procedure: (§1) The agar plate disc-diffusion method was applied. […] The discs were then placed onto the surface of agar plates (nutrient agar for bacteria and Sabouraud's dextrose agar for fungi) seeded with the test organism. Each plate contained 15 mL of the agar medium, previously seeded with 0.2 mL of the broth culture of each organism pregrown for 18 hours. The plates were incubated at 37° C. for 48 hours, and 72 hours for fungi. The inhibition zones was measured in mm. Discs impregnated with DMSO were used as a control, and its inhibition zone was subtracted from the tested compound actual inhibition zone.

Aspergillus flavus = experiment: as above; conditions: fungal
Procedure: as §1

Staphylococcus aureus = experiment: Agar plate disc-diffusion, antibacterial, inhibition zone; conditions: Gram positive
Procedure: as §1

Pseudomonas aeruginosa = experiment: as above; conditions: Gram negative
Procedure: as §1

Escherichia coli = experiment: as above; conditions: Gram negative
Procedure: as §1

Bacillus cereus = experiment: as above; conditions: Gram positive
Procedure: as §1

[2] = A = concentration of comp. = 10,000 μL
[3] = B = concentration of comp. = 30,000 μL
[4] = C = concentration of comp. = 50,000 μL

Structure (SMILES): N/C(=N\OC(=O)CSc1nnc(-c2ccccc2)o1)c1ccc([N+](=O)[O-])cc1 [Compound 3, 4-nitro-N′-(2-(5-phenyl-1,3,4-oxadiazol-2-ylthio)acetoxy)benzimidamide]
- inhibition zone, Chrysosporium keratinophilum [1, 2]: 26 mm
- inhibition zone, Chrysosporium keratinophilum [1, 3]: 28 mm
- inhibition zone, Chrysosporium keratinophilum [1, 4]: 43 mm
- inhibition zone, Aspergillus flavus (Aspergillus flavus; [2]): 17 mm
- inhibition zone, Aspergillus flavus (Aspergillus flavus; [3]): 23 mm
- inhibition zone, Aspergillus flavus (Aspergillus flavus; [4]): 35 mm
- inhibition zone, Staphylococcus aureus (Staphylococcus aureus; [2]): 19 mm
- inhibition zone, Staphylococcus aureus (Staphylococcus aureus; [3]): 22 mm
- inhibition zone, Staphylococcus aureus (Staphylococcus aureus; [4]): 38 mm
- inhibition zone, Pseudomonas aeruginosa (Pseudomonas aeruginosa; [2]): 19 mm
- inhibition zone, Pseudomonas aeruginosa (Pseudomonas aeruginosa; [3]): 25 mm
- inhibition zone, Pseudomonas aeruginosa (Pseudomonas aeruginosa; [4]): 36 mm
- inhibition zone, Escherichia coli (Escherichia coli; [2]): 27 mm
- inhibition zone, Escherichia coli (Escherichia coli; [3]): 33 mm
- inhibition zone, Escherichia coli (Escherichia coli; [4]): 48 mm
- inhibition zone, Bacillus Cereus (Bacillus cereus; [2]): 20 mm
- inhibition zone, Bacillus Cereus (Bacillus cereus; [3]): 25 mm
- inhibition zone, Bacillus Cereus (Bacillus cereus; [4]): 34 mm
